Data from patent US9738932B2, “Biomarkers for cardiovascular side-effects induced by cox-2 inhibitory compounds” (FIRALIS SAS, priority 2005, dated 2017).

System: mRNA expression in cardiovascular tissues
Assay: Affymetrix GeneChip mRNA expression profiling of monkey tissues (iliac vein, pulmonary vein, aorta, carotid artery, heart) after two-week oral-gavage treatment
Settings: iliac vein
[1] = group average (Vioxx without A60055)
[2] = group avg, Vioxx without A60055

Experimental: Administration of compounds. A two-week oral-gavage treatment with the Cox-2 specific inhibitor COX189 (Lumiracoxib®, Novartis) in comparison with rofecoxib (Vioxx®, Merck), and celecoxib (Celebrex®, Pharmacia/Pfizer), and with the nonselective NSAID, diclofenac (Voltaren®, Novartis) was performed. […] The test items were administered daily at doses of 100 mg/kg/day, except Vioxx® which was administered at 50 mg/kg/day.
Gene expression profiles. After a period of time (e.g., four weeks) of compound/drug administration, the treated animals are necropsied. 120 tissues are dissected and rapidly snap-frozen for genomics analysis. Organ samples are isolated for histopathological examinations and for gene expression localizations, such as by in situ hybridization.
Gene expression profiles have been generated using the Affymetrix microarray technology. (i) RNA extraction and purification: Briefly, total RNA was obtained by acid guanidinium thiocyanate-phenol-chloroform extraction (Trizol®, Invitrogen Life Technologies, San Diego, Calif.) from each frozen tissue section and the total RNA was then purified on an affinity resin (Rneasy®, Qiagen) according to the manufacturer's instructions. Total RNA was quantified by the absorbance at λ=260 nm (A260 nm) and the purity was estimated by the ratio A260 nm/A280 nm. Integrity of the RNA molecules was confirmed by non-denaturing agarose gel electrophoresis. RNA was stored at −80° C. until analysis. […] (ii) GeneChip® experiment: All GeneChip® experiments were conducted in the Genomics Factory EU following recommendations by the manufacturer of the GeneChip® system (Affymetrix, Expression Analysis Technical Manual (Affymetrix, Santa Clara, Calif., 2005). Human U133A genome arrays were used for transcript expression analysis. Double stranded cDNA was synthesized with a starting amount of approximately 5 μg full-length total RNA using the Superscript Choice System (Invitrogen Life Technologies) in the presence of a T7-(dT) 24 DNA oligonucleotide primer. Following synthesis, the cDNA was purified by phenol/chloroform/isoamyl alcohol extraction and ethanol precipitation. The purified cDNA was then transcribed in vitro using the BioArray® High Yield RNA Transcript Labeling Kit (ENZO) in the presence of biotinylated ribonucleotides form biotin labelled cRNA. The labelled cRNA was then purified on an affinity resin (Rneasy, Qiagen), quantified and fragmented. An amount of approximately 10 μg labelled cRNA was hybridized for approximately 16 hours at 45° C. to an expression probe array. The array was then washed and stained twice with streptavidin-phycoerythrin (Molecular Probes) using the GeneChip Fluidics Workstation 400 (Affymetrix). The array was then scanned twice using a confocal laser scanner (GeneArray Scanner®, Agilent) resulting in one scanned image. This resulting “.dat-file” was processed using the MASS program (Affymetrix) into a “.cel-file”. The “.cel file” was then transferred to tan Affymetrix GeneChip Laboratory Information Management System (LIMS) database, which is connected to a UNIX Sun Solaris server through a network filing system that allows for the average intensities for all probes cells (CEL file) to be downloaded into an Oracle database (NPGN). Raw data was converted to expression levels using a “target intensity” of 100. […] The data were checked for quality and loaded in the GeneSpring® software versions 5.0 (Silicon Genetics, Calif., US) for statistical analysis.
Quality control analysis of transcriptome data: The following quality measures were analysed for each sample: Scaling factor, background, percent present calls, AFFX-GAPDH 3′: AFFX-GAPDH 5′-ratio, AFFX-GAPDH 3′ variance, AFFX-Beta-actin 3′: AFFX-Beta-actin 5′-ratio.

CS(=O)(=O)c1ccc(C2=C(c3ccccc3)C(=O)OC2)cc1 [Vioxx®, rofecoxib]
BCL6 (215990_s_at) mRNA expression, Avg fold changes vs control [1]: 1.0 fold | BTN2A2 (205298_s_at) mRNA expression, Avg fold changes vs control [1]: 1.1 fold | CCR1 (205098_at) mRNA expression, Avg fold changes vs control [1]: 1.1 fold | CD2 (205831_at) mRNA expression, Avg fold changes vs control [1]: 1.1 fold | CD48 (204118_at) mRNA expression, Avg fold changes vs control [1]: 1.1 fold | CD53 (203416_at) mRNA expression, Avg fold changes vs control [1]: 1.2 fold | CDC2 (210559_s_at) mRNA expression, Avg fold changes vs control [1]: 1.0 fold | CYBB (203922_s_at) mRNA expression, Avg fold changes vs control [1]: 1.2 fold | EMP3 (203729_at) mRNA expression, Avg fold changes vs control [1]: 0.7 fold | FCER1G (204232_at) mRNA expression, Avg fold changes vs control [1]: 0.9 fold | FCGR2A (203561_at) mRNA expression, Avg fold changes vs control [1]: 1.1 fold | FCGRT (218831_s_at) mRNA expression, Avg fold changes vs control [1]: 1.0 fold | FKBP11 (219117_s_at) mRNA expression, Avg fold changes vs control [1]: 0.7 fold | FKBP11 (219118_at) mRNA expression, Avg fold changes vs control [1]: 0.6 fold | GP6 (220336_s_at) mRNA expression, Avg fold changes vs control [1]: 1.2 fold | HCLS1 (202957_at) mRNA expression, Avg fold changes vs control [1]: 1.2 fold | HEM1 (209734_at) mRNA expression, Avg fold changes vs control [1]: 1.2 fold | HLA-A (210514_x_at) mRNA expression, Avg fold changes vs control [1]: 1.2 fold | HLA-A (213932_x_at) mRNA expression, Avg fold changes vs control [1]: 1.2 fold | HLA-C (211799_x_at) mRNA expression, Avg fold changes vs control [1]: 1.0 fold | HLA-E (200904_at) mRNA expression, Avg fold changes vs control [1]: 1.1 fold | HLA-F (221978_at) mRNA expression, Avg fold changes vs control [1]: 1.3 fold | ICAM1 (202637_s_at) mRNA expression, Avg fold changes vs control [1]: 0.8 fold | IL13RA1 (210904_s_at) mRNA expression, Avg fold changes vs control [1]: 1.1 fold | PIK3CD (203879_at) mRNA expression, Avg fold changes vs control [1]: 1.1 fold | PRKCBP1 (209048_s_at) mRNA expression, Avg fold changes vs control [1]: 1.3 fold | PRKCBP1 (209049_s_at) mRNA expression, Avg fold changes vs control [1]: 1.0 fold | PTPN7 (204852_s_at) mRNA expression, Avg fold changes vs control [1]: 1.4 fold | SIGIRR (52940_at) mRNA expression, Avg fold changes vs control [1]: 1.1 fold | STAT1 (200887_s_at) mRNA expression, Avg fold changes vs control [1]: 1.2 fold | STAT1 (AFFX-HUMISGF3A/M97935_3_at) mRNA expression, Avg fold changes vs control [1]: 1.1 fold | STAT3 (208992_s_at) mRNA expression, Avg fold changes vs control [1]: 1.0 fold | TCIRG1 (204158_s_at) mRNA expression, Avg fold changes vs control [1]: 1.0 fold | THY1 (213869_x_at) mRNA expression, Avg fold changes vs control [1]: 0.8 fold | TMPO (209753_s_at) mRNA expression, Avg fold changes vs control [1]: 0.8 fold | TMSB10 (217733_s_at) mRNA expression, Avg fold changes vs control [1]: 1.1 fold | TNFRSF21 (218856_at) mRNA expression, Avg fold changes vs control [1]: 1.2 fold | TRB@ (210915_x_at) mRNA expression, Avg fold changes vs control [1]: 1.3 fold | TRB@ (213193_x_at) mRNA expression, Avg fold changes vs control [1]: 1.2 fold | 209813_x_at avg fold change vs control [2]: 0.4 fold | AIF1 (209901_x_at) avg fold change vs control [2]: 0.3 fold | AIF1 (213095_x_at) avg fold change vs control [2]: 0.6 fold | B2M (201891_s_at) avg fold change vs control [2]: 1.4 fold | BCL3 (204908_s_at) avg fold change vs control [2]: 0.7 fold | BTN3A1 (207485_x_at) avg fold change vs control [2]: 2.0 fold | BTN3A3 (38241_at) avg fold change vs control [2]: 14 fold | BTN3A3 (204820_s_at) avg fold change vs control [2]: 1.6 fold | BTN3A3 (204821_at) avg fold change vs control [2]: 1.7 fold | C1QA (218232_at) avg fold change vs control [2]: 0.9 fold | C1QB (202953_at) avg fold change vs control [2]: 1.0 fold | C1R (212067_s_at) avg fold change vs control [2]: 0.9 fold | C1S (208747_s_at) avg fold change vs control [2]: 1.3 fold | C2 (203052_at) avg fold change vs control [2]: 0.9 fold | C4A (208451_s_at) avg fold change vs control [2]: 1.1 fold | CASP1 (209970_x_at) avg fold change vs control [2]: 1.1 fold | CASP1 (211367_s_at) avg fold change vs control [2]: 1.4 fold | CCL2 (216598_s_at) avg fold change vs control [2]: 1.0 fold | CCL3 (205114_s_at) avg fold change vs control [2]: 1.4 fold | CCL5 (1405_i_at) avg fold change vs control [2]: 0.5 fold | CCL8 (214038_at) avg fold change vs control [2]: 1.8 fold | CCL18 (209924_at) avg fold change vs control [2]: 0.7 fold | CCL19 (210072_at) avg fold change vs control [2]: 1.2 fold | CCNB2 (202705_at) avg fold change vs control [2]: 1.4 fold | CD3D (213539_at) avg fold change vs control [2]: 2.0 fold | CD8A (205758_at) avg fold change vs control [2]: 1.3 fold | CD14 (201743_at) avg fold change vs control [2]: 0.8 fold | CD74 (209619_at) avg fold change vs control [2]: 1.1 fold | CLU (208791_at) avg fold change vs control [2]: 0.9 fold | CMAH (210571_s_at) avg fold change vs control [2]: 1.0 fold | CTSC (201487_at) avg fold change vs control [2]: 1.1 fold | CTSK (202450_s_at) avg fold change vs control [2]: 1.3 fold | CTSS (202902_s_at) avg fold change vs control [2]: 1.0 fold | CX3CR1 (205898_at) avg fold change vs control [2]: 1.0 fold | CXCL9 (203915_at) avg fold change vs control [2]: 1.6 fold | CXCL10 (204533_at) avg fold change vs control [2]: 1.1 fold | CXCL11 (210163_at) avg fold change vs control [2]: 1.5 fold | CXCL11 (211122_s_at) avg fold change vs control [2]: 1.0 fold | CXCL12 (209687_at) avg fold change vs control [2]: 1.0 fold | CYBA (203028_s_at) avg fold change vs control [2]: 1.1 fold | CYBB (203923_s_at) avg fold change vs control [2]: 0.9 fold | CYP1B1 (202436_s_at) avg fold change vs control [2]: 1.0 fold | CYP3A5 (214234_s_at) avg fold change vs control [2]: 0.9 fold | CYP11B1 (214630_at) avg fold change vs control [2]: 0.8 fold | DUSP6 (208893_s_at) avg fold change vs control [2]: 1.0 fold | ECGF1 (204858_s_at) avg fold change vs control [2]: 1.9 fold | ECM1 (209365_s_at) avg fold change vs control [2]: 1.3 fold | F2RL1 (206429_at) avg fold change vs control [2]: 2.0 fold | F13A1 (203305_at) avg fold change vs control [2]: 0.9 fold | FCGR1A (214511_x_at) avg fold change vs control [2]: 0.6 fold | FCGR3A (204006_s_at) avg fold change vs control [2]: 0.8 fold | G1P2 (205483_s_at) avg fold change vs control [2]: 3.3 fold | GZMB (210164_at) avg fold change vs control [2]: 1.6 fold | HCA127 (220040_x_at) avg fold change vs control [2]: 0.6 fold | HCK (208018_s_at) avg fold change vs control [2]: 1.2 fold | HFE (210864_x_at) avg fold change vs control [2]: 1.2 fold | HFE (211329_x_at) avg fold change vs control [2]: 0.9 fold | HFE (211332_x_at) avg fold change vs control [2]: 1.0 fold | HFE (211863_x_at) avg fold change vs control [2]: 0.8 fold
